SMILES strings stand for the structures. Activity calls are given as the source filed them. The rule behind the calls is not given here.

The target of this experiment is Dual specificity protein phosphatase 1 (Homo sapiens) (UniProt P28562). Nature of the experiment: DUSP1 inhibition in catalase presence – biochemical, catalase added, active/probe assessment, dose response (AID 562). Conditions: recombinant MKP-1 phosphatase, fluorescence, with catalase.
Sequence of Dual specificity protein phosphatase 1 (Homo sapiens) (P28562 whole entry, looked up): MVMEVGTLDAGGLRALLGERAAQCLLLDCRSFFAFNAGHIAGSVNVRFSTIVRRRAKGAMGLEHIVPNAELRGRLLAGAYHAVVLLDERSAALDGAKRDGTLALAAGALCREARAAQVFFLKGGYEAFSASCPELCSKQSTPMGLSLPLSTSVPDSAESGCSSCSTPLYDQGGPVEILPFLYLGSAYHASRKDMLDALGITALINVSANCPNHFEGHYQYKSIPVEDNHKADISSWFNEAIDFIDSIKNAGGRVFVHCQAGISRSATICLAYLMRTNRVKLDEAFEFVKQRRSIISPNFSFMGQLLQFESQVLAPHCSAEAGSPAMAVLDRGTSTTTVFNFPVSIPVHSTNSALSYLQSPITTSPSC
With `CCCSc1nnc(NC(=O)c2sc3nc(-c4cccs4)ccc3c2N)s1`, the IC50 was 25.7 µM.
In the case of `CCCCCC#CCC#CCC#CCC#CCCCC(=O)O`, the IC50 is 13.1 µM.
Take `CCn1c(SCC(=O)Nc2ccc3c(c2)c2ccccc2n3CC)nnc1-c1ccco1`: the IC50 is 21.1 µM.
As for `Cc1ccc(C)n1-c1cccc(C(=O)O)c1`, the IC50 is 16.9 µM.
With `O=C(Nc1ccc2nc(-c3ccco3)c(-c3ccco3)nc2c1)N1CCCCCC1`, the IC50 is 24.1 µM.
As for `O=C1C=Cc2ccccc2C1=O`, the IC50 was 22.5 µM.
Regarding `N#Cc1c(N2CCCC2)nc(N)c2c(N)nc(N3CCCC3)cc12`, the IC50 was > 50 µM (inactive).
With `Cc1cccc(NC(=O)c2cc(NC(=O)C3CCCCC3C(=O)O)ccc2N2CCCCC2)c1` (stereo unspecified), the IC50 was > 50 µM (inactive).
As to `CC(C)Cn1c(N)c(C(=O)COC(=O)c2cc(-c3ccco3)nc3ccccc23)c(=O)n(C)c1=O`, the IC50 was 25.5 µM.
With `COC(=O)c1ccccc1NC(=O)CN1C(=O)C2CCCN2c2ncc(Cl)cc21` (stereo unspecified), the IC50 is > 50 µM (inactive).
`CCCCn1c(NC(=O)c2ccccc2)c(C#N)c2nc3ccccc3nc21`: the IC50 was 32.4 µM.
As for `[O-]/[N+](=C\c1ccc(OC(F)F)cc1)c1ccccc1`, the IC50 is > 50 µM (inactive).
Regarding `FC(F)(F)c1ccc(N2CCOCC2)c(Nc2nc3ccccc3n3cnnc23)c1`, the IC50 was > 50 µM (inactive).
For the molecule `CC1=C(/C=C/C(C)=C/C=C/C(C)=C/C(=O)O)C(C)(C)CCC1`, the half-maximal inhibitory concentration (IC50) was 48.6 µM.
Take `COCCCn1c(N)c(C(=O)NCCC(C)C)c2nc3ccccc3nc21`: the IC50 is > 50 µM (inactive).
The result for `O=C1Nc2ccccc2SC(c2ccccc2)C1O` (stereo unspecified) reads 35.5 µM; that for `CCOc1ccc2noc3c2c1C(=O)c1ccccc1-3`, 30.2 µM; that for `Cc1cc(C)n2c(SCC(=O)N3CCN(S(=O)(=O)c4ccc(Cl)cc4)CC3)nnc2n1`, 49.9 µM.
The result for `Cc1c(N=c2c(=O)c3ccccc3c2=O)c(=O)n(-c2ccccc2)n1C` reads > 50 µM (inactive); that for `Cc1nc2cc(-c3cccc(F)c3)nn2c(C)c1CCC(=O)N1CCC2(CC1)OCCO2`, > 50 µM (inactive); that for `CCCCNC(=O)c1c(N)n(CCCOC)c2nc3ccccc3nc12`, > 50 µM (inactive).
The result for `Cc1cccc(N2CCN(C(=O)Cc3c(C(=O)O)[nH]c4ccc(Cl)cc34)CC2)c1C` reads 46.8 µM; that for `COc1ccc(-c2cc3nc(C4CCN(C(=O)OC(C)(C)C)CC4)c(C(=O)O)cn3n2)cc1`, 36.3 µM.
As to `CCc1ccc(NC(=O)CSc2nc3ccccc3c(=O)n2CCN2CCOCC2)cc1`, the IC50 is > 50 µM (inactive).
The result for `Cn1ncnc2c(=O)n(C)c(=O)nc1-2` reads > 50 µM (inactive).
`O=C(c1cccs1)c1no[n+]([O-])c1C(=O)c1cccs1`: the IC50 was 6.96 µM.
In the case of `N#Cc1c(NC(=O)c2ccc(Br)o2)n(-c2ccccc2)c2nc3ccccc3nc12`, the IC50 was > 50 µM (inactive).
As for `O=C(NC1(O)C(=O)c2ccccc2C1=O)c1ccccc1`, the IC50 was > 50 µM (inactive).
The result for `CC(C)Sc1nc2sc3c(c2c2nnc(SCC(=O)NCc4ccco4)n12)CCCC3` reads 22.7 µM; that for `COc1ccc(Cn2c(C)nc3c(c2=O)c2nc4ccccc4nc2n3Cc2ccco2)cc1`, 22 µM; that for `CCOc1ccc(-c2cc3nc(C4CCN(C(=O)OC(C)(C)C)CC4)c(C(=O)O)cn3n2)cc1`, 27.7 µM.
Regarding `COc1ccc2noc3c2c1C(=O)c1ccccc1-3`, the IC50 is 14.3 µM.
Take `CCOC(=O)c1ccc2c(c1)C1C=CCC1C(C(=O)O)N2` (stereo unspecified): the IC50 was 32.7 µM.
On to `COc1cc(/C=C(/C#N)c2ccc(F)cc2)ccc1OCc1ccc(C(=O)O)o1`, for which the IC50 was > 50 µM (inactive).
As for `COc1ccc(-n2c(NC(=O)c3ccco3)c(C#N)c3nc4ccccc4nc32)cc1`, the IC50 is > 50 µM (inactive).
The result for `O=C(OC1CCCCC1)c1ccc2c(c1)C1C=CCC1C(C(=O)O)N2` (stereo unspecified) reads 17.5 µM; that for `CCn1nc(-c2ccccc2)nc2c(=O)n(C)c(=O)nc1-2`, > 50 µM (inactive); that for `O=C1C=C(NCc2ccc(Cl)c(Cl)c2)CC1`, > 50 µM (inactive).
The result for `N#Cc1c(N)sc(=S)c2c1CCN(Cc1ccccc1)C2` reads > 50 µM (inactive); that for `Cc1ccc(/C=C/C2=Cc3c(sc(NC(=O)CSc4n[nH]c(N)n4)c3C#N)C(C)(C)C2)o1`, 19.8 µM.
Consider `CC(C)(C)N1C(=O)Cc2c1nc(N)c1c(N)nc(N3CCCCC3CO)c(C#N)c21` (stereo unspecified), for which the IC50 was > 50 µM (inactive).
For the molecule `CC(=O)[C@@H]1[C@@H]2C(=O)N(c3ccc(F)c(Cl)c3)C(=O)[C@@H]2C2c3ccccc3C=CN21` (stereo partly specified), the IC50 was > 50 µM (inactive).
With `CCn1nc(-c2cccs2)nc2c(=O)n(C)c(=O)nc1-2`, the IC50 is > 50 µM (inactive).
Turning to `O=C(Nc1ccccc1)c1ccc2nc(-c3ccco3)c(-c3ccco3)nc2c1`, the IC50 was 32 µM.
Take `O=C1c2ccccc2-c2onc3ccc(NCCCn4ccnc4)c1c23`: the IC50 is 35.2 µM.
Turning to `Nc1nc2c(s1)CCc1c-2cnn1-c1ccccc1`, the IC50 is > 50 µM (inactive).
The result for `[O-]/[N+](=C/c1ccc(F)cc1)c1ccccc1` reads > 50 µM (inactive); that for `CCOc1cc(/C=C(/C#N)c2ccc(F)cc2)ccc1OCc1ccc(C(=O)O)o1`, 41.8 µM; that for `Cc1nc2c(C(=O)NCCC3=CCCCC3)c[nH]n2c(=O)c1Cl`, 49.9 µM.
With `[O-]/[N+](=C\c1ccncc1)c1ccccc1`, the IC50 was 46.6 µM.
The result for `Cc1ccc(-c2csc(NC(=O)c3ccno3)n2)cc1` reads 49.8 µM; that for `Cc1cc(NC(=O)c2ccc(S(=O)(=O)N3CCCC3)cc2)nc2c1c(=O)oc1ccccc12`, 26.1 µM.
In the case of `CCCCCNC(=O)c1ccc2c(=O)[nH]c3c(C(=O)NCC4CCCO4)sc(=S)n3c2c1` (stereo unspecified), the IC50 was 36.7 µM.
The result for `COc1ccc(Br)cc1/C=c1\sc2nc(-c3ccco3)nn2c1=O` reads 17.2 µM; that for `CCCCn1c(SCC(=O)c2ccc(OC)cc2OC)nc2cc(S(N)(=O)=O)ccc21`, 42.1 µM.
For `Nc1c(N2CCCC2)cc(Cl)c2nonc12`, the IC50 was > 50 µM (inactive).
